Source: US8022086B2, “Therapeutic agent for glomerular disease” (Kowa Co., Ltd., priority 2004, dated 2011)

System: rat model of glomerular basement membrane (GBM) nephritis
Test: Pharmacological test employing rat model of glomerular basement membrane (GBM) nephritis: urinary total protein excretion
Assay type: in vivo, Wistar male rats
Settings: anti-GBM antibody-induced nephritis rats, repeated oral administration for two weeks; for 18-hour urinary total protein excretion: pitavastatin calcium 30 mg/kg, candesartan cilexetil 3 mg/kg, control group 316, N=7; for 18-hour urinary total protein excretion compared with control group (significance): versus no drug administration group
Method: Wistar male rats (six weeks old, purchased from Japan Laboratory Animals, Inc.) were quarantined and acclimatized for four days, and employed for the test. Firstly, a rat GBM rabbit IgG antibody was prepared, and then an antibody solution was adjusted with saline upon use to be 31 mg IgG antibody/mL saline. Thereafter, each of the rats was fixated under unanesthetized conditions, and the antibody solution was intravenously administered (1 mL/kg) through the tail vein, whereby progressive renal disorder was induced. The resultant rats were divided into four groups (N=7 for each), and immediately thereafter, the below-described test was carried out. […] In the drug administration groups, the respective drugs were repeatedly orally administered for two weeks. In each of the groups, after completion of two-week drug administration, urine was collected from each rat for 18 hours in a metabolic cage (Product of […] Co., Ltd.), and urinary total protein excretion was measured.

Structure (SMILES) | 18-hour urinary total protein excretion | 18-hour urinary total protein excretion compared with control group (significance)
CCOc1nc2cccc(C(=O)OC(C)OC(=O)OC3CCCCC3)c2n1Cc1ccc(-c2ccccc2-c2nnn[nH]2)cc1 (stereo not shown) [candesartan cilexetil, 1-(cyclohexyloxycarbonyloxy)ethyl 2-ethoxy-1-[[2′-(1H-tetrazol-5-yl)biphenyl-4-yl]methyl]-1H-benzimidazole-7-carboxylate] | 92 mg/18 h/kg | lower, but not significantly lower
O=C(O)C[C@H](O)C[C@H](O)/C=C/c1c(C2CC2)nc2ccccc2c1-c1ccc(F)cc1 [pitavastatin calcium, (3R, 5S, 6B)-7-[2-cyclopropyl-4-(4-fluorophenyl)-3-quinolyl]-3,5-dihydroxy-6-heptenoic acid] | 138 mg/18 h/kg | lower, but not significantly lower
